Experimental data from ChEMBL document CHEMBL1158609, “Potent antimicrobial activity of 3-(4,5-diaryl-1H-imidazol-2-yl)-1H-indole derivatives against methicillin-resistant Staphylococcus aureus” (2010).
Converted amounts (≈) assume the structure as drawn.

Tests used:
[1] = test system: Staphylococcus aureus; assay: Antimicrobial activity against methicillin-susceptible Staphylococcus aureus; format: functional
[2] = test system: Staphylococcus aureus; assay: Antimicrobial activity against methicillin-resistant Staphylococcus aureus; format: functional
[3] = test system: Staphylococcus epidermidis; assay: Antimicrobial activity against Staphylococcus epidermidis ATCC 12228; format: functional
[4] = test system: Pseudomonas aeruginosa; assay: Antimicrobial activity against Pseudomonas aeruginosa ATCC 39324; format: functional
[5] = test system: Salmonella enterica; assay: Antimicrobial activity against Salmonella Typhimurium ATCC 14028; format: functional, Salmonella enterica subsp. enterica serovar Typhimurium
[6] = test system: Streptococcus pyogenes; assay: Antimicrobial activity against Streptococcus pyogenes ATCC 12386; format: functional
[7] = test system: Streptococcus dysgalactiae; assay: Antimicrobial activity against Streptococcus dysgalactiae ATCC 12388; format: functional
[8] = test system: Enterococcus faecalis; assay: Antimicrobial activity against Enterococcus faecalis ATCC 29212; format: functional
[9] = test system: Salmonella enterica; assay: Antimicrobial activity against Salmonella Typhimurium ATCC 13311; format: functional, Salmonella enterica subsp. enterica serovar Typhimurium
[10] = test system: Enterococcus faecalis; assay: Antimicrobial activity against Enterococcus faecalis ATCC 51559; format: functional
[11] = test system: Bacillus subtilis; assay: Antimicrobial activity against Bacillus subtilis ATCC 6633; format: functional
[12] = test system: Enterococcus faecalis; assay: Antimicrobial activity against Enterococcus faecalis ATCC 51299; format: functional
[13] = test system: Streptococcus sanguinis; assay: Antimicrobial activity against Streptococcus sanguinis ATCC 10556; format: functional
[14] = test system: Staphylococcus saprophyticus; assay: Antimicrobial activity against Staphylococcus saprophyticus ATCC 15305; format: functional
[15] = test system: Streptococcus agalactiae; assay: Antimicrobial activity against Streptococcus agalactiae ATCC 13813; format: functional
[16] = test system: Staphylococcus epidermidis; assay: Antimicrobial activity against Staphylococcus epidermidis ATCC 35983; format: functional
[17] = test system: Pseudomonas aeruginosa; assay: Antimicrobial activity against Pseudomonas aeruginosa ATCC 19142; format: functional
[18] = test system: Streptococcus pyogenes; assay: Antimicrobial activity against Streptococcus pyogenes ATCC 19615; format: functional
[19] = test system: Streptococcus dysgalactiae; assay: Antimicrobial activity against Streptococcus dysgalactiae ATCC 12394; format: functional
[20] = test system: Bacillus subtilis; assay: Antimicrobial activity against Bacillus subtilis ATCC 14579; format: functional
[21] = test system: Streptococcus pneumoniae; assay: Antimicrobial activity against Streptococcus pneumoniae ATCC 49150; format: functional
[22] = test system: Staphylococcus epidermidis; assay: Antimicrobial activity against Staphylococcus epidermidis ATCC 13518; format: functional
[23] = test system: Micrococcus luteus; assay: Antimicrobial activity against Micrococcus luteus ATCC 10240; format: functional
[24] = test system: Escherichia coli; assay: Antimicrobial activity against Escherichia coli ATCC 35333; format: functional
[25] = test system: Escherichia coli; assay: Antimicrobial activity against Escherichia coli ATCC 12435; format: functional

Cc1[nH]c2ccccc2c1-c1nc(-c2ccc(N(C)C)cc2)c(-c2ccc(N(C)C)cc2)[nH]1
MIC [1]: 2 µg/mL (≈ 4.59 µM) | MIC [2]: 2 µg/mL (≈ 4.59 µM)

Cc1[nH]c2ccccc2c1-c1nc(-c2ccc(Br)cc2)c(-c2ccc(Br)cc2)[nH]1
MIC [1]: 2 µg/mL (≈ 3.94 µM) | MIC [2]: 2 µg/mL (≈ 3.94 µM)

Brc1ccc2[nH]cc(-c3nc(-c4ccccc4)c(-c4ccccc4)[nH]3)c2c1
MIC [1]: 4 µg/mL (≈ 9.65 µM) | MIC [2]: 4 µg/mL (≈ 9.65 µM)

Fc1ccc(-c2nc(-c3c[nH]c4ccc(Br)cc34)[nH]c2-c2ccc(F)cc2)cc1
MIC [1]: 1 µg/mL (≈ 2.22 µM) | MIC [3]: 2 µg/mL (≈ 4.44 µM) | MIC [4]: > 64 µg/mL | MIC [2]: 1 µg/mL (≈ 2.22 µM) | MIC [5]: > 64 µg/mL | MIC [6]: 2 µg/mL (≈ 4.44 µM) | MIC [7]: 2 µg/mL (≈ 4.44 µM) | MIC [8]: 2 µg/mL (≈ 4.44 µM) | MIC [9]: > 64 µg/mL | MIC [10]: 2 µg/mL (≈ 4.44 µM) | MIC [11]: 2 µg/mL (≈ 4.44 µM) | MIC [12]: 2 µg/mL (≈ 4.44 µM) | MIC [13]: 1 µg/mL (≈ 2.22 µM) | MIC [14]: 2 µg/mL (≈ 4.44 µM) | MIC [15]: 2 µg/mL (≈ 4.44 µM) | MIC [16]: 2 µg/mL (≈ 4.44 µM) | MIC [17]: > 64 µg/mL | MIC [18]: 2 µg/mL (≈ 4.44 µM) | MIC [19]: 2 µg/mL (≈ 4.44 µM) | MIC [20]: 2 µg/mL (≈ 4.44 µM) | MIC [21]: 2 µg/mL (≈ 4.44 µM) | MIC [22]: 2 µg/mL (≈ 4.44 µM) | MIC [23]: 1 µg/mL (≈ 2.22 µM) | MIC [24]: > 64 µg/mL | MIC [25]: > 64 µg/mL

Cc1[nH]c2ccccc2c1-c1nc(-c2ccc(Oc3ccccc3)cc2)c(-c2ccc(Oc3ccccc3)cc2)[nH]1
MIC [1]: > 64 µg/mL

O=[N+]([O-])c1ccc(-c2nc(-c3c[nH]c4ccc(Br)cc34)[nH]c2-c2ccccc2)cc1
MIC [1]: > 64 µg/mL

Fc1ccc(-c2nc(-c3c[nH]c4ccc(Br)cc34)[nH]c2-c2ccccc2)cc1
MIC [1]: 2 µg/mL (≈ 4.63 µM) | MIC [2]: 2 µg/mL (≈ 4.63 µM)

Brc1ccc2[nH]cc(-c3nc(-c4ccc(-c5ccccc5)cc4)c(-c4ccc(-c5ccccc5)cc4)[nH]3)c2c1
MIC [1]: > 64 µg/mL

Cc1[nH]c2ccccc2c1-c1nc(-c2ccccc2)c(-c2ccccc2)[nH]1
MIC [1]: 8 µg/mL (≈ 22.9 µM) | MIC [2]: 4 µg/mL (≈ 11.4 µM)

Cc1[nH]c2ccccc2c1-c1nc(-c2ccc(F)cc2)c(-c2ccc(F)cc2)[nH]1
MIC [1]: 4 µg/mL (≈ 10.4 µM) | MIC [2]: 4 µg/mL (≈ 10.4 µM)

Cc1[nH]c2ccccc2c1-c1nc(-c2ccc(-c3ccccc3)cc2)c(-c2ccc(-c3ccccc3)cc2)[nH]1
MIC [1]: > 64 µg/mL

Cc1[nH]c2ccccc2c1-c1nc(-c2ccc(Br)cc2)c(-c2ccccc2)[nH]1
MIC [1]: 4 µg/mL (≈ 9.34 µM) | MIC [2]: 4 µg/mL (≈ 9.34 µM)

Cc1[nH]c2ccccc2c1-c1nc(-c2ccc(-c3ccccc3)cc2)c(-c2ccccc2)[nH]1
MIC [1]: 4 µg/mL (≈ 9.4 µM) | MIC [2]: 2 µg/mL (≈ 4.7 µM)

Cc1ccc(-c2nc(-c3c(C)[nH]c4ccccc34)[nH]c2-c2ccccc2)cc1
MIC [1]: 4 µg/mL (≈ 11 µM) | MIC [2]: 4 µg/mL (≈ 11 µM)

Cc1[nH]c2ccccc2c1-c1nc(-c2ccc([N+](=O)[O-])cc2)c(-c2ccccc2)[nH]1
MIC [1]: 8 µg/mL (≈ 20.3 µM) | MIC [2]: 8 µg/mL (≈ 20.3 µM)

Cc1[nH]c2ccccc2c1-c1nc(-c2ccc(F)cc2)c(-c2ccccc2)[nH]1
MIC [1]: 4 µg/mL (≈ 10.9 µM) | MIC [2]: 4 µg/mL (≈ 10.9 µM)

Clc1ccc(-c2nc(-c3c[nH]c4ccc(Br)cc34)[nH]c2-c2ccccc2)cc1
MIC [1]: 1 µg/mL (≈ 2.23 µM) | MIC [2]: 1 µg/mL (≈ 2.23 µM)

Cc1ccc(-c2nc(-c3c[nH]c4ccc(Br)cc34)[nH]c2-c2ccccc2)cc1
MIC [1]: 2 µg/mL (≈ 4.67 µM) | MIC [2]: 2 µg/mL (≈ 4.67 µM)

Brc1ccc2[nH]cc(-c3nc(-c4ccc(Oc5ccccc5)cc4)c(-c4ccc(Oc5ccccc5)cc4)[nH]3)c2c1
MIC [1]: > 64 µg/mL

Cc1[nH]c2ccccc2c1-c1nc(-c2ccc(Cl)cc2)c(-c2ccc(Cl)cc2)[nH]1
MIC [1]: 4 µg/mL (≈ 9.56 µM) | MIC [2]: 4 µg/mL (≈ 9.56 µM)

Cc1ccc(-c2nc(-c3c(C)[nH]c4ccccc34)[nH]c2-c2ccc(C)cc2)cc1
MIC [1]: 8 µg/mL (≈ 21.2 µM) | MIC [2]: 8 µg/mL (≈ 21.2 µM)

Cc1[nH]c2ccccc2c1-c1nc(-c2ccc(Cl)cc2)c(-c2ccccc2)[nH]1
MIC [1]: 8 µg/mL (≈ 20.8 µM) | MIC [2]: 8 µg/mL (≈ 20.8 µM)

Brc1ccc(-c2nc(-c3c[nH]c4ccc(Br)cc34)[nH]c2-c2ccccc2)cc1
MIC [1]: 2 µg/mL (≈ 4.06 µM) | MIC [2]: 2 µg/mL (≈ 4.06 µM)

Brc1ccc2[nH]cc(-c3nc(-c4ccc(-c5ccccc5)cc4)c(-c4ccccc4)[nH]3)c2c1
MIC [1]: 4 µg/mL (≈ 8.16 µM) | MIC [2]: 4 µg/mL (≈ 8.16 µM)

CN(C)c1ccc(-c2nc(-c3c[nH]c4ccc(Br)cc34)[nH]c2-c2ccc(N(C)C)cc2)cc1
MIC [1]: 2 µg/mL (≈ 4 µM) | MIC [2]: 2 µg/mL (≈ 4 µM)

O=[N+]([O-])c1ccc(-c2nc(-c3c[nH]c4ccc(Br)cc34)[nH]c2-c2ccc([N+](=O)[O-])cc2)cc1
MIC [1]: > 64 µg/mL

Brc1ccc(-c2nc(-c3c[nH]c4ccc(Br)cc34)[nH]c2-c2ccc(Br)cc2)cc1
MIC [1]: > 64 µg/mL

Clc1ccc(-c2nc(-c3c[nH]c4ccc(Br)cc34)[nH]c2-c2ccc(Cl)cc2)cc1
MIC [1]: 2 µg/mL (≈ 4.14 µM) | MIC [2]: 2 µg/mL (≈ 4.14 µM)

Cc1ccc(-c2nc(-c3c[nH]c4ccc(Br)cc34)[nH]c2-c2ccc(C)cc2)cc1
MIC [1]: 2 µg/mL (≈ 4.52 µM) | MIC [2]: 4 µg/mL (≈ 9.04 µM)

Cc1[nH]c2ccccc2c1-c1nc(-c2ccc([N+](=O)[O-])cc2)c(-c2ccc([N+](=O)[O-])cc2)[nH]1
MIC [1]: > 64 µg/mL

CC(=O)NC[C@H]1CN(c2ccc(N3CCOCC3)c(F)c2)C(=O)O1 [LINEZOLID]
MIC [1]: 1 µg/mL (≈ 2.96 µM)

Cc1onc(-c2ccccc2)c1C(=O)N[C@@H]1C(=O)N2[C@@H]1SC(C)(C)[C@@H]2C(=O)O [OXACILLIN]
MIC [1]: 0.5 µg/mL (≈ 1.25 µM) | MIC [2]: > 16 µg/mL

CN[C@H](CC(C)C)C(=O)N[C@H]1C(=O)N[C@@H](CC(N)=O)C(=O)N[C@H]2C(=O)N[C@H]3C(=O)N[C@H](C(=O)N[C@H](C(=O)O)c4cc(O)cc(O)c4-c4cc3ccc4O)[C@H](O)c3ccc(c(Cl)c3)Oc3cc2cc(c3O[C@@H]2O[C@H](CO)[C@@H](O)[C@H](O)[C@H]2O[C@H]2C[C@](C)(N)[C@H](O)[C@H](C)O2)Oc2ccc(cc2Cl)[C@H]1O [VANCOMYCIN]
MIC [4]: > 64 µg/mL | MIC [5]: > 64 µg/mL | MIC [6]: 2 µg/mL (≈ 1.38 µM) | MIC [7]: 0.5 µg/mL (≈ 0.345 µM) | MIC [9]: > 64 µg/mL | MIC [10]: > 64 µg/mL | MIC [11]: 0.25 µg/mL (≈ 0.173 µM) | MIC [12]: 16 µg/mL (≈ 11 µM) | MIC [13]: 1 µg/mL (≈ 0.69 µM) | MIC [14]: 2 µg/mL (≈ 1.38 µM) | MIC [15]: 1 µg/mL (≈ 0.69 µM) | MIC [17]: > 64 µg/mL | MIC [18]: 1 µg/mL (≈ 0.69 µM) | MIC [19]: 1 µg/mL (≈ 0.69 µM) | MIC [20]: 1 µg/mL (≈ 0.69 µM) | MIC [21]: 4 µg/mL (≈ 2.76 µM) | MIC [22]: 0.5 µg/mL (≈ 0.345 µM) | MIC [23]: 0.25 µg/mL (≈ 0.173 µM) | MIC [24]: > 64 µg/mL | MIC [25]: > 64 µg/mL
